Measured values reported in PubChem BioAssay AID1963978 (Molecular Pharmacology Branch, DTP, NCI, 2024).

Test system: 616215-338-R-J1-PDC spheroids with HUVEC/MSC, viability
Test: Anticancer human tumor 616215-338-R-J1-PDC patient-derived colon adenocarcinoma cell line growth inhibition [PI3K]
Details: for IC50: curve of first compound; for viability, T/C: stronger effect = lower value
Text: Combinatorial screen of targeted agents with the PI3K inhibitors inavolisib, alpelisib, duvelisib, and copanlisib in multi-cell type tumor spheroids
A high-throughput screen of multi-cell type tumor spheroids was designed to identify active combinations of targeted small molecules and PI3K pathway inhibitors. Complex spheroids include a stromal component modeled by human endothelial cells (HUVEC) and fibroblasts modeled by human mesenchymal stem cells (MSCs). The concentration ranges selected for each drug and investigational agent were based upon clinically achievable concentrations if the clinical Cmax of the agent was known.
Compounds. The drugs and investigational agents: inavolisib (NSC800729), alpelisib (NSC765974), duvelisib (NSC772469), copanlisib (NSC816437), ipatasertib (NSC767898), afuresertib (NSC778305), talazoparib (NSC767125), sapanisertib (NSC764658), selumetinib (NSC741078), tovorafenib (DAY101, NSC766906), vemurafenib (NSC761431), ravoxertinib (NSC781343), sotorasib (NSC818433), MRTX1133 (NSC 836407), abemaciclib (NSC 768073), palbociclib (NSC758247), venetoclax (NSC 766270), SY5609 (NSC837396), enzalutamide (NSC755605), and darolutamide (NSC825331), were obtained from the National Cancer Institute (NCI) Developmental Therapeutics Program Chemical Repository. The FDA-approved anticancer drug set is available from the NCI Developmental Therapeutics Program. […] The stock solutions were prepared in dimethyl sulfoxide (DMSO, Sigma-Aldrich, St. Louis, MO, cat. D2650) at 800-fold the tested concentration and stored at -70 degrees C prior to their use. All drugs and investigational agents were tested over a range starting from a high concentration at or near the clinical Cmax and decreasing in half-log increments. If the clinical Cmax for an agent had not been determined, the highest concentration tested was 10 microM.
Cell Culture. All cells were maintained in an incubator at 37 degrees C and 5% CO2 with 95% humidity. The PDC lines were cultured according to standard operating procedures established by the NCI PDMR (https://pdmr.cancer.gov/sops/default.htm). All PDCs were thawed and cultured in Matrigel-coated flasks prepared with a working solution of 1X Ham's F-12 nutrient mix, without supplementation (Invitrogen, Waltham, MA, cat. 11765054), 100 U/mL penicillin-streptomycin (Invitrogen, cat. 15140122), and 2.5% Matrigel (Corning Inc., Corning, NY, cat. 354248) for the first three passages. The 354836-022-R-J1-PDC, 475296-252-R-J1-PDC, and 997726-040-R-J2-PDC lines were cultured in 6A media, which includes advanced DMEM/F-12 (Thermo Fisher Scientific, cat. 12634028), 10 mM HEPES (Thermo Fisher Scientific, cat. 15630080), 1X GlutaMAX supplement (Thermo Fisher Scientific, cat. 35050061), 0.1 mg/mL primocin (InvivoGen, San Diego, CA, cat. ant-pm-2), 10% defined fetal bovine serum, heat inactivated (HyClone Laboratories Inc., Logan, UT, cat. SH30070.03HI), 50% L-WRN conditioned media (ATCC, cat. CRL-3276), 1.25 mM N-Acetyl-L-cysteine (Sigma-Aldrich, cat. A9165), 10 mM nicotinamide (Sigma-Aldrich, cat. N0636), 1X B-27 supplement (Thermo Fisher Scientific, cat. 17504044), 1X N-2 supplement (Thermo Fisher Scientific, cat. 17502048), and 10 microM Y-27632 dihydrochloride (Tocris Bioscience, Bristol, United Kingdom, cat. 1254). The 624824-186-R-J2-PDC line was cultured in 6C/Colon 1B media, which includes all 6A media components plus 50 ng/mL human EGF recombinant protein (Thermo Fisher Scientific, cat. PHG0311). […]

[1] = second compound 0.00316 µM, first compound 0.0316 µM
[2] = second compound 0.00316 µM, first compound 0.1 µM
[3] = second compound 0.01 µM, first compound 0.0316 µM
[4] = second compound 0.01 µM, first compound 0.1 µM
[5] = second compound 0.0316 µM, first compound 0.0316 µM
[6] = second compound 0.0316 µM, first compound 0.1 µM
[7] = second compound 0.1 µM, first compound 0.0316 µM
[8] = second compound 0.1 µM, first compound 0.1 µM
[9] = second compound 0.316 µM, first compound 0.0316 µM
[10] = second compound 0.316 µM, first compound 0.1 µM
[11] = second compound 1 µM, first compound 0.0316 µM
[12] = second compound 1 µM, first compound 0.1 µM
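Also: spheroids exposed to agents for seven days before the viability read.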

In the case of `CC(C)n1nc(-c2ccc3oc(N)nc3c2)c2c(N)ncnc21` + CC(Nc1ccc2c(c1)OCCn1cc(N3C(=O)OCC3C(F)F)nc1-2)C(N)=O, the IC50 (second compound 0.00316 µM) is reported as greater than 0.1 µM, the IC50 (second compound 0.01 µM) is reported as greater than 0.1 µM and the IC50 (second compound 0.0316 µM) is reported as greater than 0.1 µM. The IC50 (second compound 0.1 µM) was greater than 0.1 µM, the IC50 (second compound 0.316 µM) was greater than 0.1 µM and the IC50 (second compound 1 µM) was 0.0932 µM. It also gave a viability, T/C (second compound 0.00316 µM, first compound 0.000316 µM) of 92.2%, a viability, T/C (second compound 0.00316 µM, first compound 0.001 µM) of 90.5% and a viability, T/C (second compound 0.00316 µM, first compound 0.00316 µM) of 87.2%. The viability, T/C (second compound 0.00316 µM, first compound 0.01 µM) was 114%, the viability, T/C [1] was 99.2% and the viability, T/C [2] was 91.5%. It also gave a viability, T/C (second compound 0.01 µM, first compound 0.000316 µM) of 93%, a viability, T/C (second compound 0.01 µM, first compound 0.001 µM) of 102% and a viability, T/C (second compound 0.01 µM, first compound 0.00316 µM) of 111%. It also gave a viability, T/C (second compound 0.01 µM, first compound 0.01 µM) of 112%, a viability, T/C [3] of 113% and a viability, T/C [4] of 102%. The viability, T/C (second compound 0.0316 µM, first compound 0.000316 µM) was 100%, the viability, T/C (second compound 0.0316 µM, first compound 0.001 µM) was 95.3% and the viability, T/C (second compound 0.0316 µM, first compound 0.00316 µM) was 103%. The viability, T/C (second compound 0.0316 µM, first compound 0.01 µM) was 118%, the viability, T/C [5] was 108% and the viability, T/C [6] was 82.1%. It also gave a viability, T/C (second compound 0.1 µM, first compound 0.000316 µM) of 110%, a viability, T/C (second compound 0.1 µM, first compound 0.001 µM) of 95.3% and a viability, T/C (second compound 0.1 µM, first compound 0.00316 µM) of 100%. For the same compound, the viability, T/C (second compound 0.1 µM, first compound 0.01 µM) was 110%, the viability, T/C [7] was 117% and the viability, T/C [8] was 81.5%. It also gave a viability, T/C (second compound 0.316 µM, first compound 0.000316 µM) of 96.6%, a viability, T/C (second compound 0.316 µM, first compound 0.001 µM) of 95.8% and a viability, T/C (second compound 0.316 µM, first compound 0.00316 µM) of 98.8%. For the same compound, the viability, T/C (second compound 0.316 µM, first compound 0.01 µM) was 110%, the viability, T/C [9] was 94.6% and the viability, T/C [10] was 76.2%. The viability, T/C (second compound 1 µM, first compound 0.000316 µM) was 102%, the viability, T/C (second compound 1 µM, first compound 0.001 µM) was 118% and the viability, T/C (second compound 1 µM, first compound 0.00316 µM) was 106%. It also gave a viability, T/C (second compound 1 µM, first compound 0.01 µM) of 96.7%, a viability, T/C [11] of 86.6% and a viability, T/C [12] of 47.4%.
`CCCS(=O)(=O)Nc1ccc(F)c(C(=O)c2c[nH]c3ncc(-c4ccc(Cl)cc4)cc23)c1F` + CC(Nc1ccc2c(c1)OCCn1cc(N3C(=O)OCC3C(F)F)nc1-2)C(N)=O was tested, and the IC50 (second compound 0.00316 µM) was 4.92 µM, the IC50 (second compound 0.01 µM) was 4.9 µM and the IC50 (second compound 0.0316 µM) was 4.61 µM. It also gave an IC50 (second compound 0.1 µM) of 4.47 µM, an IC50 (second compound 0.316 µM) of 4.68 µM and an IC50 (second compound 1 µM) of 3.81 µM. It also gave a viability, T/C [1] of 91.3%, a viability, T/C [2] of 92.7% and a viability, T/C (second compound 0.00316 µM, first compound 0.316 µM) of 90.8%. The viability, T/C (second compound 0.00316 µM, first compound 1 µM) was 88.8%, the viability, T/C (second compound 0.00316 µM, first compound 3.16 µM) was 79.9% and the viability, T/C (second compound 0.00316 µM, first compound 10 µM) was 2.03%. The viability, T/C [3] was 97.9%, the viability, T/C [4] was 93.1% and the viability, T/C (second compound 0.01 µM, first compound 0.316 µM) was 92.2%. It also gave a viability, T/C (second compound 0.01 µM, first compound 1 µM) of 92.9%, a viability, T/C (second compound 0.01 µM, first compound 3.16 µM) of 79% and a viability, T/C (second compound 0.01 µM, first compound 10 µM) of 2.65%. It also gave a viability, T/C [5] of 94.6%, a viability, T/C [6] of 103% and a viability, T/C (second compound 0.0316 µM, first compound 0.316 µM) of 91.3%. For the same compound, the viability, T/C (second compound 0.0316 µM, first compound 1 µM) was 95.4%, the viability, T/C (second compound 0.0316 µM, first compound 3.16 µM) was 72.9% and the viability, T/C (second compound 0.0316 µM, first compound 10 µM) was 3.28%. The viability, T/C [7] was 107%, the viability, T/C [8] was 98% and the viability, T/C (second compound 0.1 µM, first compound 0.316 µM) was 92.7%. It also gave a viability, T/C (second compound 0.1 µM, first compound 1 µM) of 103%, a viability, T/C (second compound 0.1 µM, first compound 3.16 µM) of 69.9% and a viability, T/C (second compound 0.1 µM, first compound 10 µM) of 3.51%. For the same compound, the viability, T/C [9] was 103%, the viability, T/C [10] was 103% and the viability, T/C (second compound 0.316 µM, first compound 0.316 µM) was 109%. It also gave a viability, T/C (second compound 0.316 µM, first compound 1 µM) of 102%, a viability, T/C (second compound 0.316 µM, first compound 3.16 µM) of 73.3% and a viability, T/C (second compound 0.316 µM, first compound 10 µM) of 4.84%. For the same compound, the viability, T/C [11] was 108%, the viability, T/C [12] was 98.1% and the viability, T/C (second compound 1 µM, first compound 0.316 µM) was 106%. The viability, T/C (second compound 1 µM, first compound 1 µM) was 102%, the viability, T/C (second compound 1 µM, first compound 3.16 µM) was 58.8% and the viability, T/C (second compound 1 µM, first compound 10 µM) was 4.52%.
